pIC50: −log10 of the molar value.

What is called pIC50 is the negative decadic logarithm of the IC50, by convention in mol/L.

The experiment deals with T1, Tyrosine-protein phosphatase non-receptor type 1 (Homo sapiens, UniProt P18031).
T1 sequence (P18031 whole entry): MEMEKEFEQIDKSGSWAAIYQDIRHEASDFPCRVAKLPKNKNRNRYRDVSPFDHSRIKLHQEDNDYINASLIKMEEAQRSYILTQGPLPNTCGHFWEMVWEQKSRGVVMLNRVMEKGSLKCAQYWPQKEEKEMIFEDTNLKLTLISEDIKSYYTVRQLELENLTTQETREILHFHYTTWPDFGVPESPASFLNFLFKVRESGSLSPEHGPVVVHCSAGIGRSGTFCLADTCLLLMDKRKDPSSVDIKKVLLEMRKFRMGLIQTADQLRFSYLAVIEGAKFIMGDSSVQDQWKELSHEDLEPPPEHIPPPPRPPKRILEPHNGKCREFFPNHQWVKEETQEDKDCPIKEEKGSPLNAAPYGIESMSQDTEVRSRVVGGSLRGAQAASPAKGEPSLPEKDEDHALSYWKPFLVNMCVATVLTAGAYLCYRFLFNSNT
The experiment can be described thus: The inhibitory activity tested against human Protein-tyrosine phosphatase 1B enzyme.
`C=CC(C)(C)c1c(O)cc(O)c2c(=O)c(O)c(-c3cc(O)c(O)c(CC=C(C)C)c3)oc12` showed a pIC50 of 5.37.
The same measure for `CC(C)=CCc1cc(C(=O)/C=C/c2ccc(O)c(O)c2)c(O)cc1O` [BROUSSOCHALCONE A]: 4.43; for `CC(C)=CCc1cc(-c2oc3cc(O)cc(O)c3c(=O)c2O)cc(O)c1O`: 4.67.
As for `CC(C)=CCc1cc(C2CCc3ccc(O)cc3O2)cc(O)c1O` (centres undefined), the figure is 4.38.

The values are drawn from ChEMBL document CHEMBL1134982, “Natural PTP1B inhibitors from Broussonetia papyrifera” (Bioorg Med Chem Lett, 2002).
